Reference: patent US20250177357A1, “METHODS FOR TREATING HYPERTROPHIC CARDIOMYOPATHY” (priority 2021, published 2025)
“And” between values parts separate entries of the source, which are not always exact repeats. Equal entries are not always repeated.

Legend:
healthy adults = test: Phase 1 pharmacodynamics by echocardiography (LVEF), SAD and MAD cohorts; type: in vivo, human
Method: Echocardiography. For PD assessments of LVEF, echocardiograms for the SAD and MAD cohorts were interpreted by the echocardiography core laboratory and used for all data analysis and dose level review decisions while immediate local interpretation of the echocardiograms was performed for safety monitoring. […] Echocardiograms on day 3 (48 h after dosing) were obtained only if the 24 h LVEF had not returned to near or above baseline, as determined by the investigator. In the MAD cohorts, echocardiograms were obtained on day −1, pre-dose on day 1, and at 1.5 h post dose on days 2, 4, and 9, and at 1.5, 24, and 72 h post dose on day 14 (for the 5-mg and 10-mg cohorts) or on day 17 (for the 7.5-mg cohort). Echocardiograms were obtained 3 days after the last dose (on day 17 or 20) only if the participant's prior LVEF was not near or above baseline, as determined by the investigator.
All participants who received ≥1 dose of study drug and had ≥1 pre-dose and ≥1 post-dose echocardiographic measurement were included in the PD analysis set. […] Descriptive statistics of the echocardiographic parameters were generated using SAS® Version 9.3 or higher.
Dose-response analysis was performed using analysis of covariance (ANCOVA) to identify the least-squares mean difference (aficamten minus placebo). To analyze the impact of drug dose on echocardiographic parameters in the SAD and MAD cohorts, an inferential analysis was conducted on the PD analysis set using linear mixed models for repeated-measures analysis of covariance (ANCOVA). The ANCOVA used baseline value as a covariate, included treatment, time-point, and time-point-by-treatment interaction as fixed effects, and change from baseline as the dependent variable. The unstructured variance-covariance structure was used, and the model accounted for the time-point repeated measures. The ANCOVA analysis was conducted separately for each study part and for each PD parameter. The least-squares means, the difference in least squares means (active minus placebo), and the associated 2-sided 95% CIs were presented for each comparison.
Analyses of concentration ‘bin’ and exposure-response were also performed using ANCOVA. SAS® PROC MIXED was used for all comparative analyses. […] A concentration bin ANCOVA was conducted using linear mixed models for repeated-measures analyses with concentration bin group as a fixed effect, baseline PD parameters as a covariate, change from baseline as the dependent variable, and a random intercept to adjust for the repeated measures. The unstructured variance-covariance structure was used. […] The ANCOVA compared the change in PD parameters between each bin versus the pooled placebo group. The least-squares means, the difference in least squares means (bin group minus placebo), and the associated 2-sided 95% CIs were presented for each comparison. The ANCOVA analysis was conducted separately for each study part. For all time-points at which both PK data and PD measures were available, the time-points were pooled for the analysis. […] From least to greatest, the data were then divided into 5 groups of observations (‘bins’), each consisting of 20% of the data points. Each bin was treated as a separate group.
The above analysis was then repeated using concentration as a continuous variable to estimate the exposure-response trend. Both a random intercept effect and a random concentration effect were added to the ANCOVA. The estimate of the concentration slope, with corresponding 2-sided 95% CIs, and the ANCOVA analyses were presented for each study part.
For all time-points at which both PK data and PD measures were available, the time points were pooled for the analysis. A nominal significance level of 5% was used for statistical comparisons, without adjustment for multiplicity.

[1] = tested on: patients with symptomatic oHCM; test: Open-label extension trial in oHCM: safety; type: in vivo, human
Text: An open-label extension clinical trial of CK-274 in patients with symptomatic oHCM was initiated.
Patients who completed the study as described in Example 2 and had not developed atrial fibrillation were eligible to enroll in the study. Echo-guided dose titration based on site reads was managed by the investigator and could occur at any time during the trial, as described below.
Each patient received Dose 1 of CK-274 once daily for 2 weeks. […] Patients were up-titrated to Dose 2 if either of the following conditions were met on echocardiography: (1) resting LVOT-G≥30 mmHg and the biplane LVEF≥50%; or (2) resting LVOT-G<30 mmHg, post-Valsalva LVOT-G≥50 mmHg, and the biplane LVEF≥50%. Otherwise, the patient remained on 5 mg of CK-274. If LVEF was […], treatment was discontinued. If LVEF was <40%, treatment is interrupted.
Ambulatory cardiac monitoring is performed on weeks 48, 96, 144, 192 and 240. Cardiac magnetic resonance is monitored at weeks 48, 144 and 240. (See FIG. 26).

[2] = SAD 50 mg (n = 11), […] post dose

CCc1nc(-c2ccc3c(c2)CC[C@H]3NC(=O)c2cnn(C)c2)no1 [aficamten, (R)—N-(5-(5-ethyl-1,2,4-oxadiazol-3-yl)-2,3-dihydro-1H-inden-1-yl)-1-methyl-1H-pyrazole-4-carboxamide]
Participants with absolute reductions in LVEF of ≥10% from baseline (healthy adults; 10-mg MAD cohort): 33% | Participants with absolute reduction in LVEF ≥5% from baseline (healthy adults; MAD 7.5 mg once daily, 1 of 6): 17% | Participants with absolute reduction in LVEF ≥5% from baseline (healthy adults; MAD 10 mg once daily, 2 of 6): 33% | Number of participants with reduction in LVEF ≥10% (healthy adults; MAD 10-mg cohort): 2 | Plasma aficamten concentrations with minimal suppression of LVEF in most participants (healthy adults; MAD cohorts): ≤ 180 ng/mL | A, mean change from baseline (healthy adults; [2]): 2.5 cm/s | E, mean change from baseline (healthy adults; [2]): -2.7 cm/s | LV ET, mean change from baseline (healthy adults; [2]): 1.9 ms | Participants with absolute reduction in LVEF ≥5% from baseline (healthy adults; SAD 1-, 10-, or 25-mg cohorts): no participants | Participants with absolute reduction in LVEF ≥5% from baseline (healthy adults; SAD 3-mg cohort, 1 of 6): 17% | Participants with absolute reduction in LVEF ≥10% (healthy adults; SAD 40-mg cohort, 1 of 6): 17% | Participants with absolute reduction in LVEF ≥5% from baseline (healthy adults; SAD 40-mg cohort, 2 of 6): 33% | Participants with reduction in LVEF to <50% (healthy adults; SAD 50-mg cohort, 2 of 11): 18% | Participants with absolute reduction in LVEF ≥5% from baseline (healthy adults; SAD 50-mg cohort, 7 of 11): 64% | LVEF of the individual participants with LVEF <50% (healthy adults; SAD 50-mg cohort, core laboratory assessment): 48.2% and 45.5% | Participants with absolute reduction in LVEF ≥5% from baseline (healthy adults; SAD 75-mg cohort, 1 of 1): 100% | Participants with reduction in LVEF to <50% (healthy adults; SAD 75-mg cohort, 1 of 1): 100% | Participants with absolute reduction in LVEF ≥10% (healthy adults; SAD 75-mg cohort, 1 participant): 100% | Reduction in LVEF to <50% (healthy adults; any MAD cohort, core laboratory assessment): not observed | Time within which decreases in LVEF to <50% were reversible (healthy adults; following single doses): ≤ 6 h | Decrease in mean LVEF from baseline, least-squares mean difference vs placebo (healthy adults; single 50-mg dose, […] post dose, p=0.0001): 5.5% | LVEF reached by 1 participant (healthy adults; single dose of 75 mg, approximately […] after dosing): 34.1% | Patients with TEAE Leading to Dose Reduction ([1]; N = 38): 2 (5%) | Patients with TEAE Leading to Drug Interruption ([1]; N = 38): 1 (3%) | Patients with at Least One Related TEAE ([1]; N = 38): 8 (21%) | Patients with at Least One Severe TEAE ([1]; N = 38): 1 (3%) | Patients with at Least One TEAE ([1]; N = 38): 28 (74%) | Patients with at Least One TESAE ([1]; N = 38): 2 (5%) | LVEF of one patient with recurrent alcohol induced atrial fibrillation ([1]; on 15 mg of CK-274): 47% | Events of LVEF <50% attributed to CK-274 ([1]; open-label extension): no events
